Measured values published in patent US20160002316A1, “SERPINS: METHODS OF THERAPEUTIC BETA-CELL REGENERATION AND FUNCTION” (SANOFI, priority 2013, published 2016).

Tests used:
human islet β cells = experiment: Human islet studies, Ki67+ insulin+ cells; assay type: cell-based; conditions: human islets, 24 hr
Experimental: Human islets were obtained from the Integrated Islet Distribution Program. All studies and protocols used were approved by the Joslin Diabetes Center's Committee on Human Studies (CHS#5-05). Upon arrival, islets were cultured overnight in Miami Media #1A (Cellgro). The islets were then starved in Final Wash/Culture Media (Cellgro, Manassas, Va.) for 3 hr prior to stimulation with serum (diluted to 10% v/v), LECM (diluted to 10% v/v), or HCM (diluted to 50% v/v) or Miami Media #1A supplemented with Sivelestat or GW311616A for 24 hr. Islets were used for immunostaining studies as described (El Ouaamari, et al., 2013).
Pancreases and islets were analyzed by immunostaining using anti-Ki67 (BD), anti-insulin (Abcam, Cambridge, Mass.), or anti-glucagon (Sigma-Aldrich, St. Louis, Mo.) antibodies. Quantification of replicating β- and α-cells was performed as described previously (El Ouaamari, et al., 2013).
In all experiments, cell counting was manually performed in a blinded fashion by a single observer. BrdU+ or Ki67+ β cells were assessed by immunofluorescence microscopy. Insulin+ cells showing nuclear DAPI staining were considered as β cells. Insulin+ cells showing nuclear colocalized staining for DAPI+ and Ki67+(or BrdU+) were counted as proliferating β cells. […]

[1] = test system: primary mouse islets β-cells; experiment: Mouse islets cultured with recombinant SerpinB1, ovalbumin or elastase inhibitors, Ki67 immunostaining; assay type: cell-based; conditions: for mouse islet β-cell proliferation in vitro: Sivelestat (50 μg/ml) or GW311616A (100 μg/ml), FIG. 25 C
Experimental: Five to six-week old male mouse islets were cultured in the presence of different molecules for 48 h. Islet β-cell replication was assessed by Ki67 immunostaining studies. A) Representative images of islets stimulated with 100 or 1000 ng/ml of human recombinant SerpinB1. B) Quantification of Ki67+ insulin+ cells in islets stimulated with 1 to 1000 ng/ml of rSerpinB1 or 1000 ng/ml of ovalbumin (OVA). C) Representative images (left panel) and quantification (right panel) of Ki67+ insulin+ islet cells stimulated with Sivelestat (50 μg/ml) or GW311616A (100 μg/ml). D) Representative images of human islets stimulated for 24 hours with Sivelestat or GW311616A or control conditions.
To test whether SerpinB1 is a β-cell growth factor, we cultured freshly isolated primary mouse islets in presence of various doses of recombinant human SerpinB1 or ovalbumin (SerpinB14) and evaluated β-cell proliferation by Ki67 immunofluorescent staining (known to those of ordinary skill in the art).
To address whether SerpinB1 acts directly to stimulate β-cell proliferation, we cultured mouse islets in the presence of various doses of human recombinant SerpinB1 and a control (ovalbumin), and evaluated β-cell proliferation by Ki67 immunofluorescence staining (FIG. 21 A).
(§1) A major substrate of SerpinB1 is neutrophil elastase. To investigate whether the proliferative action of SerpinB1 is mediated by antagonizing neutrophil elastase activity, we assessed the ability of the neutrophil elastase inhibitor, Sivelestat (Sivelestat is the International Nonproprietary Name (INN) as given by the World Health Organization (WHO); the chemical name is: N-{2-[({4-[(2,2-dimethylpropanoyl)oxy]phenyl}sulfonyl)amino]benzoyl}glycine), to stimulate islet β-cell proliferation in vitro.

[2] = test system: human (EndoC-βH1) β-cells; experiment: EndoC-βH1 cells treated with Sivelestat, Ki67; assay type: cell-based; conditions: 100 μg/ml
Text: as §1

islet β-cells [3] = experiment: Continuous infusion of Sivelestat by osmotic pump for 2 weeks, β-cell replication; assay type: in vivo, mouse; conditions: 2-week infusion
Experimental: (§2) Five to six-week old mice were administrated with Sivelestat or GW311616A for 2 weeks. Islet β-cell and α-cell replication was assessed by immunostaining. A) Schematic of the experimental protocol of Sivelestat administration. B) Quantification of pancreatic sections harvested from animals stimulated with Sivelestat and immunostained for insulin/BrdU/DAPI or glucagon/BrdU/DAPI. C) Schematic of the experimental protocol of GW311616A delivery. D) Quantification of pancreatic sections dissected from GW311616A-treated males and immunostained for insulin/BrdU/DAPI or glucagon/BrdU/DAPI.
Five to six-week old male mice were continuously infused for 2 weeks with vehicle or Sivelestat at 150 or 300 μg/kg/day. Mice were injected during the second week with BrdU (100 mg/kg Body weight) and sacrificed 5 hour after last injection of BrdU. Pancreases were harvested for morphometric studies. A-B) Representative images and quantification of nuclei BrdU+ in insulin+ cells. C-D) Representative images and quantification of nuclei pHH3+ in insulin+ cells. E-F) Representative images and quantification of nuclei BrdU+ in glucagon+ cells. […]

islet β-cells [4] = experiment: Daily oral gavage of GW311616A for 2 weeks, β-cell mass and replication; assay type: in vivo, mouse; conditions: 2 mg/kg/day
Experimental: as §2
Five to six-week old male mice were daily gavaged with GW311616A or vehicle (water) for 2 weeks. Mice were injected during the second week with BrdU (100 mg/kg Body weight) and sacrificed 5 hour after last injection of BrdU. Pancreases and other tissues were harvested for morphometric studies. A) Schematic of the experimental protocol of GW311616 administration. B) Pancreatic sections harvested from animals stimulated with GW311616 were immunostained for insulin/BrdU/DAPI (upper panel) or glucagon/BrdU/DAPI (lower panel). C) Quantification of β-cell mass. D) Quantification of insulin+BrdU+ cells. E) Quantification of glucagon+BrdU+ cells. F-G) Representative images and quantification of nuclei BrdU+ in liver, kidney, spleen, visceral and subcutaneous adipose tissue and skeletal muscle tissue.
To explore whether increased β-cell replication secondary to enhanced SerpinB1 activity can be recapitulated in vivo, we used pharmacological compounds Sivelestat (Kawabata, et al., 1991) and GW311616A (Macdonald, et al., 2001), that are selective inhibitors of elastase, one of the major substrates of SerpinB1. Using osmotic pumps, we delivered a continuous infusion of Sivelestat for a 2-week period followed by evaluating the number of replicating β-cells by BrdU incorporation (FIG. 20A). […] In a second approach we gavaged mice with the NE inhibitor, GW311616A, at a dose of 2 mg/kg/day for 2 weeks (FIG. 20C and FIG. 22 A). […] Moreover, cell proliferation was not increased in extra-pancreatic tissues including liver, skeletal muscle, visceral and subcutaneous adipose tissue, spleen and kidney (FIGS. 22 F & G).
For Sivelestat administration, mice were anesthetized, and osmotic pumps (ALZET) containing 100 μl of either vehicle or Sivelestat (Santa Cruz) were implanted subcutaneously. Sivelestat was dissolved in 50% DMSO and was administered at a dose of 150 or 300 μg/kg/day. Control mice were infused with DMSO 50% alone. GW311616A was administered into mice by daily oral gavage for two weeks. Mice received either GW311616A (2 mg/kg body weight) or vehicle.

## CC(C)(C)C(=O)Oc1ccc(S(=O)(=O)Nc2ccccc2C(=O)NCC(=O)O)cc1 [Sivelestat, N-{2-[({4-[(2,2-dimethylpropanoyl)oxy]phenyl}sulfonyl)amino]benzoyl}glycine]
Human islet β cells
  number of replicating insulin-producing cells (Ki67+ insulin+): significantly higher
[1]
  mouse islet β-cell proliferation in vitro: directly increased
[1]; higher doses, e.g. 10 and 50 μg/ml
  number of proliferating insulin+ cells: substantial increase
[1]; low doses 1 and 5 μg/ml
  β-cell proliferation: do not enhance β-cell proliferation
[2]
  number of Ki67 positive β-cells compared to non-treated cells: increased the number
Islet β-cells [3]; 300 μg/kg/day
  proliferation of glucagon-producing α-cells: did not significantly alter
Islet β-cells [3]
  effect on β-cells by pHH3 staining: confirmed by pHH3 staining

## CC(C)[C@@H]1C(=O)N(S(C)(=O)=O)[C@@H]2CCN(C(=O)/C=C/CN3CCCCC3)[C@H]21.Cl [GW311616A]
Human islet β cells
  number of replicating insulin-producing cells (Ki67+ insulin+): significantly higher
[1]
  mouse islet β-cell proliferation in vitro: directly increased
Islet β-cells [4]
  cell proliferation in extra-pancreatic tissues (liver, skeletal muscle, visceral and subcutaneous adipose tissue, spleen, kidney): not increased
  α-cell proliferation by BrdU incorporation: not α-cell proliferation
  β-cell mass: significantly enhanced β-cell mass
  β-cell proliferation by BrdU incorporation: increased β-cell proliferation

B1: ovalbumin: ovalbumin (SerpinB14), control protein (protein, UniProt P01012 2-386, looked up)
Ovalbumin: GSIGAASMEFCFDVFKELKVHHANENIFYCPIAIMSALAMVYLGAKDSTRTQINKVVRFDKLPGFGDSIEAQCGTSVNVHSSLRDILNQITKPNDVYSFSLASRLYAEERYPILPEYLQCVKELYRGGLEPINFQTAADQARELINSWVESQTNGIIRNVLQPSSVDSQTAMVLVNAIVFKGLWEKAFKDEDTQAMPFRVTEQESKPVQMMYQIGLFRVASMASEKMKILELPFASGTMSMLVLLPDEVSGLEQLESIINFEKLTEWTSSNVMEERKIKVYLPRMKMEEKYNLTSVLMAMGITDVFSSSANLSGISSAESLKISQAVHAAHAEINEAGREVVGSAEAGVDAASVSEEFRADHPFLFCIKHIATNAVLFFGRCVSP
[1]; 1 μg/ml
  β-cell proliferation (Ki67): normal low β-cell proliferation

B2: SerpinB1: recombinant human SerpinB1, serine peptidase inhibitor B1, 42 kD protein (protein)
chain: MEQLSSANTRFALDLFLALSENNPAGNIFISPFSISSAMAMVFLGTRGNTAAQLSKTFHFNTVEEVHSRFQSLNADINKRGASYILKLANRLYGEKTYNFLPEFLVSTQKTYGADLASVDFQHASEDARKTINQWVKGQTEGKIPELLASGMVDNMTKLVLVNAIYFKGNWKDKFMKEATTNAPFRLNKKDRKTVKMMYQKKKFAYGYIEDLKCRVLELPYQGEELSMVILLPDDIEDESTGLKKIEEQLTLEKLHEWTKPENLDFIEVNVSLPRFKLEESYTLNSDLARLGVQDLFNSSKADLSGMSGARDIFISKIVHKSFVEVNEEGTEAAAATAGIATFCMLMPEENFTADHPFLFFIRHNSSGSILFLGRFSSP
[1]; compared to ovalbumin at a similar concentration
  concentration at which the increase reached statistical significance: 1 µg/mL
[1]; various doses (1 to 1000 ng/ml), 48 h
  Ki67+ insulin+ cells: dose-dependent increase
